Results reported in patent publication US4005073A, “6-Acyl derivatives of aminopenicillanic acid” (priority 1974, dated 1977).
Read-outs that look alike come from different tables or passages of the source.

Legend:
[1] = test system: S. aureous (penicillin resistant); experiment: CD50 in the mouse, S. aureous (penicillin resistant); assay type: in vivo
From the text: (§1) |CD50 (mg/kg) in the mouse

Acute Toxicity = settings: mouse, in vivo
From the text: as §1

Proteus Vulganis = experiment: CD50 in the mouse, Proteus Vulganis; assay type: in vivo
From the text: as §1

Escherichia coli = experiment: CD50 in the mouse, Escherichia coli; assay type: in vivo
From the text: as §1

Pseudomonas Aeriginmos = experiment: CD50 in the mouse, Pseudomonas Aeriginmos; assay type: in vivo
From the text: as §1

[2] = Pseudomonas, po, read-out: CD50

SMILES	ED50 ([1]; sc, S.C.) [mg/kg]	LD50 (Acute Toxicity; iv) [mg/kg]	ED50 (Proteus Vulganis; sc, S.C.) [mg/kg]	ED50 (Escherichia coli; sc, S.C.) [mg/kg]	ED50 (Pseudomonas Aeriginmos; Pseudomonas, sc, read-out: CD50) [mg/kg]	ED50 ([1]; po, P.O.) [mg/kg]	LD50 (Acute Toxicity) [mg/kg]	ED50 (Escherichia coli; po, P.O.) [mg/kg]	ED50 (Pseudomonas Aeriginmos; [2]) [mg/kg]	ED50 (Pseudomonas Aeriginmos; sc, Pseudomonas Aeriginmos, mouse, S.C., read-out: CD50 (the source's name)) [mg/kg]	LD50 (Acute Toxicity; po) [mg/kg]	ED50 (Proteus Vulganis; po, P.O.) [mg/kg]
CC(C)CC(C(=O)O)C(=O)N[C@@H]1C(=O)N2[C@@H]1SC(C)(C)[C@@H]2C(=O)O (some centres unmarked) [(1-Carboxy-3-methyl-butyl)-penicillin di-sodium]	34	2000 to 4000	6.2	2.4	124							
CCOC(=O)C(CC(C)C)C(=O)N[C@@H]1C(=O)N2[C@@H]1SC(C)(C)[C@@H]2C(=O)O (some centres unmarked) [(1-[ethoxycarbonyl-3-methylbutyl)]-penicillin sodium]	22	2000 to 4000		2.1		~100	5000	14	~100	~80		
CC(C)CC(C(=O)N[C@@H]1C(=O)N2[C@@H]1SC(C)(C)[C@@H]2C(=O)O)C(=O)OCc1ccccc1 (some centres unmarked) [(1-benzyloxycarbonyl-3-methylbutyl)-penicillin sodium]								9	142		2500 to 5000	8.9
